{
  "source": "patent US20220362182A1",
  "about": "“METHODS FOR REVERSING HEPATIC STEATOSIS” (BRIGHTSEED, INC., priority 2020, published 2022)",
  "key": {"[1]": {"system": "T6PNE cells", "assay": "fat clearance assay in palmitate-treated T6PNE cells (Oil Red O, Nile Red, triglyceride)", "format": "cell-based, human", "settings": "for effect on fat clearance induced by NCT: palmitate, inhibitor or siRNA plus NCT; for fat clearance (stored fat by Oil Red O and Nile Red staining): 0.25 mM palmitate for 2 days", "method": "Oil red O and Nile Red staining were used to measure lipid accumulation. Oil Red O staining was done as known in the art. Briefly, fixed cells were incubated with Oil Red O solution (Poly Scientific) for 3 h, followed by photomicrography (Olympus, IX71). For Nile Red staining, dye (1: 500 in PBS from 1 mg/ml in ethanol stock, Sigma) was added for 30 mins and DAPI added for 10 mins at room temperature. Quantification of Nile Red staining was done with a Celigo imaging cytometer (Nexcelom Bioscience). More than 4000 cells were analyzed for each quantification. The number of Nile Redpositive cells was normalized to the DAPI-positive cell number for each well and fold change was calculated relative to a DMSO control well.\nPalmitate (150 mM) (Sigma-Aldrich) was prepared in 50% ethanol and precomplexed with 15% fatty acid-free BSA (Research Organics, Cleveland, Ohio, USA) in a 37 C water shaker. BSA-precomplexed palmitate was used as a 12 mM stock solution for all assays with a final concentration of 0.25 mM palmitate in cell culture medium.\nsiRNAs were purchased from Ambion. For transfections, 24 μL of each siRNA (1 μM stock) was mixed with 90 μL of a 1:100 dilution of Lipofectamine RNAi MAX (Invitrogen, Waltham, Mass., USA) in Opti-MEM. Transfection was done in 24 well plates (Thermo Fisher Scientific, Waltham, Mass., USA), by incubation with cells for 30 min. at room temperature. One day after transfection, cells were transferred to 96 well plates (2000 cells per well) and incubated at 37° C. for an additional day. Forty-eight hours after transfection, either palmitate-BSA complex or BSA control plus or minus compounds was added for 2 days. For validation of siRNAs, transfected cells were harvested for RNA purification and QPCR for each gene 2 days after transfection.\nThe bicinchoninic acid (BCA) protein assay kit assay (Thermo scientific) was used to measure protein amount for DART, Western blotting and TG assays. Absorbance at 550 nm was determined using a plate reader."}, "[2]": {"system": "p62", "assay": "p62 Western blot in T6PNE cells", "format": "cell-based, human", "settings": "NCT 10 μM, RA 10 μM, fenretinide", "method": "(§1) Whole-cell extracts were prepared by incubation in RIPA buffer (Invitrogen) containing protease inhibitors (Calbiochem, San Diego, Calif.). Protein ([…]) was separated on 12% or 16% Tri-Glycine gels (Invitrogen) and transferred to Immobilon P membrane (0.2 μm pore, Millipore). After 1 h in phosphate-buffered saline-Tween (PBST) with 3% milk, membrane was incubated with antibodies to HNF4α (mouse, Novus, 1:1000), LC3B (rabbit, Novus, 1:500), p62 (SQSTM1, mouse, Santa Cruz, 1:1000) or β-actin (mouse, Santa Cruz, 1:2000), followed by secondary antibody conjugated to horseradish peroxidase (1:5000, Jackson Immune)."}, "[3]": {"system": "dihydroceramides", "assay": "lipidomic analysis of ceramides and dihydroceramides in T6PNE cells", "format": "cell-based, human", "method": "Ceramides and dihydroceramides were measured in the UCSD Lipidomics Core Facility as previously described (Quehenberger et al.). Briefly, samples were extracted using the butanol: methanol (BUME) method. The lipid layer was collected and run on a Thermo-Vanquish UPLC (Thermo Scientific) with a Cortecs T3 (C18), 2.1 mm×150 mm; 1.8 uT3 column and a binary solvent system. Mass spectrometry employed a Thermo Q Exactive instrument with MS/MS data dependent acquisition scan mode and LipidSearch software (Thermo Fisher Scientific)."}, "[4]": {"system": "CYP26A1 mRNA", "assay": "CYP26A1 mRNA in T6PNE cells", "format": "cell-based, human", "settings": "2 days, 0.25 mM palmitate, NCT 10 μM, 4-OH-RA 20 μM", "method": "Quantitative PCR (Q-PCR) from in vitro cell culture experiments used total RNA purified using RNeasy Kits (Qiagen). For liver tissue samples, total RNA was isolated using Trizol (Invitrogen) and prepared for RNAseq (mouse liver DMSO and NCT, N=3). cDNA was amplified using 3 μg of total RNA using qScript cDNA SuperMix (Quanta BioSciences, Beverly, Mass., USA). QPCR analysis was performed using SYBR® Select Master Mix (Applied Biosystems) and ABI 7900HT (Applied Biosystems, Thermo Fisher Scientific). The Ct values of mRNA expression were then normalized to the 18 s rRNA values and are expressed as fold change over samples from mice fed normal chow for in vivo experiments or DMSO controls for cell culture experiments."}, "[5]": {"system": "human insulin promoter", "assay": "modified insulin promoter assay repressed with palmitate", "format": "cell-based", "settings": "insulin promoter activity repressed with palmitate", "method": "Alverine and benfluorex were ascertained in a modification of the insulin promoter assay in which the level of insulin promoter activity was repressed with palmitate. […] Cells were treated with 0.25 mM palmitate for 2 days in the presence and absence of NCT or NFT (10 μM)."}, "[6]": {"settings": "clinical trials for type 2 diabetes; cited from earlier work"}, "[7]": {"molecular_target": "T1, HNF4α (Homo sapiens, UniProt P41235)", "T1 sequence (P41235 1-474)": "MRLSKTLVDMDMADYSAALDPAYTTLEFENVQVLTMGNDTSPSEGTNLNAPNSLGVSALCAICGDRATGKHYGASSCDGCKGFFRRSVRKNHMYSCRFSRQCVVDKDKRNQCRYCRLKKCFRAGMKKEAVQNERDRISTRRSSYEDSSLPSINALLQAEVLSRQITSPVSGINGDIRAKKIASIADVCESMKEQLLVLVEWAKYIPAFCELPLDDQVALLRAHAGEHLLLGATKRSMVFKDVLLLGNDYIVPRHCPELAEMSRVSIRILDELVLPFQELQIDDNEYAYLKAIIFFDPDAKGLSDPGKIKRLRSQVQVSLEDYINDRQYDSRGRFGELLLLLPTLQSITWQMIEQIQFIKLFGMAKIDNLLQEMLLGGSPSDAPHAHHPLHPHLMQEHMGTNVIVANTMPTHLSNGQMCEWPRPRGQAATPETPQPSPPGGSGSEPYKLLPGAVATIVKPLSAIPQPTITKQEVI", "assay": "T6PNE insulin promoter assay (human insulin promoter-GFP transgene)", "format": "cell-based", "set-up": "endogenous in cells; host or cells: T6PNE cells", "settings": "T6PNE cells, GFP-positive cells relative to DMSO", "method": "The T6PNE insulin promoter assay has been described previously and was performed here with slight modifications as follows: T6PNE cells were seeded at 200 cells per well in 384-well tissue culture plates (Greiner Bio-One) in the presence of 0.5 μM tamoxifen. Compounds described herein in DMSO were dispensed with an Echo 555 Acoustic Liquid Handler (Beckman Coulter). Three days after compound addition, cells were fixed in 4% paraformaldehyde (USBio) for 15 min and stained with DAPI (0.167 μg/ml, Invitrogen). Blue (DAPI) and green (GFP) channels were imaged using a Celigo imaging cytometer (Nexcelom Bioscience). The number of GFPpositive cells was normalized to the DAPI-positive cell number and fold change calculated relative to the DMSO control.\nT6PNE cells were maintained in RPMI (5.5mM glucose, Corning) supplemented with 10% fetal bovine serum (FBS, Sigma-Aldrich) and 1% penicillin-streptomycin (pen-strep, Gibco). Cells were maintained in 5% CO2 at 37° C. For the insulin promoter assay, 0.5 μM tamoxifen (Sigma-Aldrich) was added to T6PNE cell culture media. HepG2 or HeLa cells were cultured in DMEM (high glucose, Corning) supplemented with 10% FBS and 1% pen-strep and maintained at 5% CO2, 37° C."}, "[8]": {"system": "HNF4α", "settings": "previous finding, cited from earlier work"}, "[9]": {"molecular_target": "T1, HNF4α", "assay": "DARTS assay (HNF4α protease sensitivity) in HepG2 cells", "format": "binding", "set-up": "Total cell protein was extracted; endogenous in cells; host or cells: HepG2 cells", "settings": "40 or 80 μM for 16 h, subtilisin", "method": "DARTS assays were conducted as described in the art. HepG2 cells were treated with DMSO, BI6015, NCT, NFT at a concentration of 40 or 80 μM for 16 hr. Total cell protein was extracted and measured by BCA protein assay (Thermo Scientific). Each sample was split into two aliquots for proteolysis without (−) or with (+) Subtilisin (Sigma-Aldrich). Forty […] of cell lysate was incubated with or without protease (40 ng/ml subtilisin) for 35 min at room temperature.\nas §1"}},
  "note": "Entries after “also recorded” stand apart in the source; their conditions may differ.",
  "data": [
    {"compound": "CCC(CC)C(c1ccc(Nc2nc3ccccc3s2)cc1)n1cncn1", "note": "(centres unmarked) [talarazole]", "values": [
      {"measurement": "effect on fat clearance induced by NCT", "setting": "[1]", "result": "inhibited fat clearance by NCT"}
    ]},
    {"compound": "dihydroceramide", "values": [
      {"measurement": "fat clearance (stored fat by Oil Red O and Nile Red staining)", "setting": "[1]", "result": "active at inducing fat clearance"}
    ]},
    {"compound": "CC1=C(/C=C/C(C)=C/C=C/C(C)=C/C(=O)Nc2ccc(O)cc2)C(C)(C)CCC1", "note": "[Fenretinide, fenretinide, reference compound]", "values": [
      {"measurement": "fat clearance (stored fat by Oil Red O and Nile Red staining)", "setting": "[1]", "result": "strongly positive"},
      {"measurement": "fat clearance (stored fat by Oil Red O and Nile Red staining)", "setting": "[1]; listed as fenretinide", "result": "induced fat clearance from T6PNE cells"},
      {"measurement": "p62 protein expression normalized to actin", "setting": "[2]", "result": "had a statistically significant effect"},
      {"measurement": "dihydroceramide production", "setting": "[3]; 2 days after treatment", "result": "induced multiple identical dihydroceramides"},
      {"measurement": "ceramide (Cer)/dihydroceramide (DH-Cer) ratio", "setting": "[3]; NCT+RA 10 μM, fenretinide 5 μM", "result": "substantial decrease"}
    ]},
    {"compound": "CCCCCCCCc1ccc(CCC(N)(CO)CO)cc1", "note": "[FTY720]", "values": [
      {"measurement": "fat clearance (stored fat by Oil Red O and Nile Red staining)", "setting": "[1]", "result": "neither S1P nor FTY720 had any effect on fat clearance"}
    ]},
    {"compound": "Nn1nnc2ccccc21", "note": "[ABT]", "values": [
      {"measurement": "effect on fat clearance induced by NCT", "setting": "[1]", "result": "inhibited fat clearance by NCT"}
    ]},
    {"compound": "CC1=C(/C=C/C(C)=C/C=C/C(C)=C/C(=O)O)C(C)(C)CCC1O", "note": "(centres unmarked) [4-OH RA, reference compound]", "values": [
      {"measurement": "fat clearance (stored fat by Oil Red O and Nile Red staining)", "setting": "[1]", "result": "induced fat clearance from T6PNE cells"},
      {"measurement": "CYP26A1 mRNA level", "setting": "[4]", "result": "induced an increase in CYP26A1 mRNA"}
    ]},
    {"compound": "CC(Cc1cccc(C(F)(F)F)c1)NCCOC(=O)c1ccccc1", "note": "(centres unmarked) [benfluorex, reference compound]", "values": [
      {"measurement": "fatty acid-mediated repression of the human insulin promoter", "setting": "[5]", "result": "reversed the fatty acid-mediated repression of the human insulin promoter"},
      {"measurement": "HbA1c", "setting": "[6]", "result": "effective at reducing HbA1c"},
      {"measurement": "insulin promoter activity / HNF4α activation", "setting": "[7]", "result": "relatively weak activators; also recorded: fairly weak HNF4α activators"}
    ]},
    {"compound": "CCCCCCCCCCCCCC1=C([C@H](O)[C@@H](CO)NC(=O)CCCCCCC)C1", "note": "[GT-11, N-[(1R,2S)-2-hydroxy-1-hydroxymethyl-2-(2-tridecyl-1-cyclopropenyl)ethyl] octanamide]", "values": [
      {"measurement": "fat clearance (stored fat by Oil Red O and Nile Red staining)", "setting": "[1]", "result": "strongly positive; also recorded: increase fat clearance"}
    ]},
    {"compound": "O=C(Oc1nsnc1N1CCCCC1)N1CCCCC1", "note": "[Lalistat 2]", "values": [
      {"measurement": "effect on fat clearance induced by NCT", "setting": "[1]", "result": "eliminated the ability of N-trans-caffeoyltyramine to effect fat clearance; also recorded: inhibited the ability of NCT to promote fat clearance"},
      {"measurement": "effect on fat clearance induced by NCT", "setting": "[1]; listed as Lalistat2", "result": "inhibits the effect of NCT on fat clearance"}
    ]},
    {"compound": "CCCCCCCCCCCCC/C=C/[C@@H](O)[C@@H](N)COP(=O)(O)O", "note": "[S1P, sphingosine-1-phosphate]", "values": [
      {"measurement": "fat clearance (stored fat by Oil Red O and Nile Red staining)", "setting": "[1]", "result": "did not have any effect on fat storage; also recorded: neither S1P nor FTY720 had any effect on fat clearance"}
    ]},
    {"compound": "CCN(CCCc1ccccc1)CCCc1ccccc1", "note": "[alverine, reference compound]", "values": [
      {"measurement": "fatty acid-mediated repression of the human insulin promoter", "setting": "[5]", "result": "reversed the fatty acid-mediated repression of the human insulin promoter"},
      {"measurement": "insulin promoter activity / HNF4α activation", "setting": "[7]", "result": "relatively weak activators; also recorded: fairly weak HNF4α activators"}
    ]},
    {"compound": "Cc1ccc([N+](=O)[O-])cc1S(=O)(=O)n1c(C)nc2ccccc21", "note": "[BI6015]", "values": [
      {"measurement": "hepatic steatosis", "setting": "[8]; in vitro and in vivo", "result": "caused hepatic steatosis in vitro and in vivo"},
      {"measurement": "HNF4α expression in the liver", "setting": "[8]; in vivo", "result": "caused loss of HNF4a expression in the liver; also recorded: caused loss of HNF4α expression in the liver"},
      {"measurement": "HNF4α proteolytic sensitivity / conformational change", "setting": "[9]", "result": "induced a conformational change in HNF4α"}
    ]}
  ]
}
